Laboratory results published in patent publication US12207672B2, “Compounds that modulate GPR92 receptor activity and pet food products containing the same” (MARS, INCORPORATED, priority 2018, dated 2025).

Test system: fGPR92 receptor
Test: fGPR92 activation in CHO-K1 cells, calcium sensitive fluorescent dye (FLIPR Tetra), agonist mode
Type: cell-based, cat
Details: CHO-K1 cells stably expressing fGPR92
Protocol: The present example describes the activation of the cat GPR92 receptor (fGPR92) by various compounds and compositions in vitro. Samples that can function as GPR92 agonists were identified by in vitro functional characterization. The effectiveness of a sample in activating the fGPR92 receptor was evaluated. Methods: CHO-Kl cells stably expressing fGPR92 were used to screen 118 test samples to identify samples that can activate the fGPR92 receptor. Activation of the fGPR92 receptor was detected by changes in intracellular calcium levels using a calcium sensitive fluorescent dye. Cells without fGPR92 receptor expression (mock cells) were used as a control. A FLIPR® Tetra system was used for data capture. Each sample was first tested for its ability to activate fGPR92 at three different dose levels in both agonist mode and positive allosteric modulator mode. Active samples were further tested at eight different dose levels in both agonist mode and positive allosteric modulator mode. Peptone from Sigma-Aldrich (product number: P5905; CAS number 73049-73-7) was used in this Example. Dose response curves were then generated for each sample. Menthol and cinnamaldehyde were used as negative controls. In the agonist mode (AGO), 14:0 LPA at 10 μM (EC100) was used as a positive control and the assay buffer was used as a negative control. […]

How did the “activation of fGPR92 receptor” value turn out when CC(C)[C@@H]1CC[C@@H](C)C[C@H]1O [Menthol, L-menthol] was run?
Its value is “did not activate fGPR92 receptor”.

For O=C/C=C/c1ccccc1 [cinnamaldehyde, cinnamic aldehyde], which “activation of fGPR92 receptor” value is on record?
Its value is “did not activate fGPR92 receptor”.
